Bridge positions count the residues as written; N and C are the ends.
Tested on: mussel mantle edge
Assay: Ex-vivo incubation of mantle edge fragments, calcium quantification by MP-AES
Set-up: species or system Mytilus galloprovincialis
Conditions: 4 h at 19-20 °C; CALCIIa 10 μM or ouabain 2 mM alone; MP-AES at 393.366 nm; mean ± SEM; control 400.67 ±13.83 ppm; SEM
Procedure: Figure 7 Effect of the mussel calcitonin-like peptide on (A) calcium (ppm) concentration in the mantle edge and (B) calcium uptake by mantle cells of the Mediterranean mussel. (A) The quantity of calcium (ppm) present in the mantle edge after mussel CALCIIa peptide incubation was measured using a Microwave Plasma-Atomic Emission Spectrometer (MP-AES, Agilent) at 393.366 nm. A standard curve for calcium was performed before analysing the samples. In vitro mantle assays with CALCIIa peptide and with ouabain and control (culture medium and mantle) were repeated on at least 3 independent occasions. For each assay at least ten replicates were performed and the mantle edge distal to the umbo was used (one mantle fragment per replica). Prism GraphPad v5 software was used to assess the significance of differences between the groups using a One-way Anova and Tukey’s multiple comparison test. […] C - control (no peptide or ouabain); P - peptide (10 μM); O - ouabain (2 mM), OP - ouabain (2 mM) and peptide (10 μM); PreOP - pre -stimulation for 1 hour with the peptide followed by 4 hours incubation with OP. (B) Digital photographs of the mussel mantle cells in the presence (CALCIIa, 10 μM) or absence (control) of the mussel CALCIIa peptide. Calcium ions were stained with 50 mM of Calcein (green) and cell nuclei (blue) with DAPI (Acros Organics). An increase in cellular fluorescence represents an increase in calcium uptake. Fluorescence of the CALCIIa peptide stimulated cells was 1.9 times higher than the control. The average mantle cell size was 3–4 μm and fluorescent images were taken using a Leica DM IL microscope coupled to a Visicam HDMI 6 digital camera and photographs were analysed using ImageJ software (v. 1.52a) to calculate the fluorescence intensity and for image overlay. The scale bar is indicated.
The posterior mantle edge region of the Mediterranean mussel was collected and washed in culture medium. The composition of the culture medium was as described in[91] […]

Substance: H-CTWGGGMSDEMCSTVDIDEIQRSFQVIHDRNSP-NH2 (disulfide 1-12 (inferred)) [CALCIIa, Mediterranean mussel calcitonin-like mature peptide, 33 aa, synthesized with disulphide bond and C-terminal amidation]
- Calcium in the mantle edge after incubation: 513.38 ± 24.33 ppm
